Experimental data published in a melting point compilation (Tetko et al.).

melting point [°C] | Structure (SMILES)
76 to 78 | O=C(c1ccccc1)c1ccc(Br)cc1F
223 to 226 | CCN(CC)S(=O)(=O)c1ccc(OC(C)C)c(NC(=O)CCl)c1
181 to 183 | CCOC(=O)c1nc(-c2ccccc2)oc1N
218 to 220 | COc1ccc(C(=O)O)cc1S(=O)(=O)N1CCOCC1
61 to 63 | NC(=O)c1cccc(CS)n1
201 to 203 | CC1=C(C#N)CCC(=O)N1
244 to 246 | O=C1NC(=O)N(C2CCS(=O)(=O)C2)C1=O (stereo not given)
114 to 116 | COc1cc(C=O)ccc1OCc1ccc(Cl)cc1Cl
107 to 109 | COc1nc(C)ccc1C(=O)O
64 to 66 | C#CCNC(=O)CC(=O)O
329 to 331 | Cc1nc(O)ccc1C(=O)O
114 to 116 | N#CC(N)c1cccc(Cl)c1Cl (stereo not given)
249 to 251 | NS(=O)(=O)c1cc2c(cc1Br)CCCC(=O)N2
104 to 106 | CNC(=O)CC(=O)O
171 to 173 | Cn1cnnc1Sc1ccc(C=O)cc1[N+](=O)[O-]
103 to 105 | CCOC(=O)c1oc2ccc(OC)cc2c1C
205 to 207 | O=S(=O)(c1cccc(-c2nnc(S)o2)c1)N1CCCCC1
184 to 186 | Cc1ccc(O)c(C(=O)N2CCC(C(=O)O)CC2)c1
164 to 166 | COc1ccc(S(=O)(=O)N2CCC(=NO)CC2)cc1
124 to 126 | CC(=O)c1sc(-c2ccccc2Br)nc1C
151 to 153 | COc1ccc(NC(=O)Cn2cc(N)cn2)cc1
206 to 208 | CC(=O)NC(Cc1c[nH]c2ccc(Br)cc12)C(=O)O (stereo not given)
259 to 261 | Cc1cc(C)n2nc(S)nc2n1

melting point [°C] | Structure (SMILES)
162 to 164 | O=C(O)c1cccnc1SC(F)(F)F
145 to 147 | CCOC(=O)Nc1ccc(NC(C)c2ccccn2)cc1 (stereo not given)
70 to 72 | O=[N+]([O-])c1cc(Cl)ccc1NC1CC1
90 to 92 | NNC(=O)CO
56 to 58 | COCCOc1c(N)cccc1Cl
109 to 111 | C=CCNc1ncc(C(=O)OC)s1
200 to 202 | O=c1[nH]c(S)nc2scc(-c3ccc(F)cc3)c12
222 to 224 | O=C(O)c1cccnc1NC1CCCC1
199 to 201 | Nc1cc(S(=O)(=O)N2CCOCC2)ccc1O
82 to 84 | CCOC(OCC)c1cc(-c2cccc(F)c2)[nH]n1
154 to 156 | Oc1ccc(C2SCCCS2)cc1
123 to 125 | CCCC1(C)NC(=O)NC1=O (stereo not given)
189 to 191 | N#CCc1ccc(C(=O)O)cc1
297 to 299 | N#Cc1ccc(-c2ccccc2)[nH]c1=O
54 to 56 | COc1cc(CCC(=O)O)cc(OC)c1
288 to 290 | Cc1sc2nc(S)n(C)c(=O)c2c1C
196 to 198 | Cc1oncc1C(=O)Nc1ccc(N)c(C(F)(F)F)c1
130 to 132 | N#CC1(NC(=O)CCl)CCCCC1
183 to 185 | CC1(c2ccc(Cl)s2)NC(=O)NC1=O (stereo not given)
110 to 112 | Cc1ccc(N2C(=O)NC(=O)C2C)cc1 (stereo not given)
216 to 218 | COc1cc(NC(=O)C(C)C)c(C(=O)O)cc1OC
57 to 59 | CNc1ccc(Br)nc1
37 to 39 | Clc1noc(-c2cccs2)n1

melting point [°C] | Structure (SMILES)
148 to 150 | NC(=O)C1(Nc2ccccc2)CCCCC1
121 to 123 | Nc1c(O)cccc1F
172 to 174 | O=C(CCl)N1CC=C(c2c[nH]c3ccccc23)CC1
78 to 80 | Nc1cccnc1N1CCCC1
107 to 109 | COc1ccc(-c2ccc(C=O)o2)c([N+](=O)[O-])c1
104 to 106 | O=C(CCCl)Nc1ccccn1
201 to 203 | O=C(O)c1cc(S(=O)(=O)N2CCOCC2)ccc1F
73 to 75 | COc1cccc(NC(=O)CCl)c1
130 to 132 | Cc1ccc(C(=O)Nc2cccc(C=O)c2)cc1
133 to 135 | O=C(Nc1cccnc1)c1cccc(Br)c1
77 to 79 | COc1ccc(C(=O)c2ccccc2Cl)cc1
131 to 133 | O=C(O)Cc1ccc(S(=O)(=O)Cl)cc1
194 to 196 | CCS(=O)(=O)NCc1ccc(C(=O)O)cc1
104 to 106 | Cc1ccc2c(c1)c(C=O)c(C)n2C
106 to 108 | Nc1cnc(Br)c(Br)c1
142 to 144 | Nc1ccccc1CN1CCNC1=O
281 to 283 | C/C(=N\O)c1cc(C(=O)O)c[nH]c1=O
77 to 79 | c1ccc(NC2CCNC2)cc1 (stereo not given)
279 to 281 | COc1cc([N+](=O)[O-])cc2sc(N)nc12
111 to 113 | O=C(O)CCOc1cccc([N+](=O)[O-])c1
95 to 97 | CC(=O)N1CCC(S(=O)(=O)Cl)CC1
67 to 69 | CC1(C)CC(=O)CC(C)(C)N1C(=O)CCl
131 to 133 | COC(OC)(OC)c1cc2ccccc2c(=O)[nH]1

melting point [°C] | Structure (SMILES)
67 to 69 | NCc1cccc(S(=O)(=O)N2CCCCC2)c1
139 to 141 | CC(C)c1nnc(S)n1C
97 to 99 | Cc1ccc(N2CCC(N)C2=O)cc1 (stereo not given)
97 to 99 | CC(=O)NCCc1cc(C(=O)CCl)ccc1F
127 to 129 | CC(=O)c1ccc(-c2ccc(C(F)(F)F)cc2)s1
141 to 143 | CNCc1ccc(OC)c(O)c1
122 to 124 | O=C(O)Cc1ccc(NS(=O)(=O)c2cccc(C(F)(F)F)c2)cc1
201 to 203 | COc1ccc(N2CC(C(=O)O)CC2=O)cc1OC (stereo not given)
49 to 51 | COc1ccc(C#N)cc1C
200 to 204 | N#Cc1c(C(F)(F)F)cc(=O)[nH]c1SCC(=O)O
134 to 136 | Cc1nn(C)c2ncc(S(=O)(=O)Cl)cc12
174 to 176 | Nc1cc(-c2cccnc2)no1
72 to 74 | CCOC(=O)c1ccc(N2CC(N)C2)nc1
127 to 131 | Cc1n[nH]c(C)n1
153 to 155 | Nc1ccc(Nc2ccc(F)cc2)c2ccncc12
110 to 112 | Cc1c(C(=O)O)nnn1-c1ccccc1
279 to 281 | CNc1cnc(Cl)cc1C(=O)O
172 to 174 | COc1ccc(N(C)S(=O)(=O)c2cccc(C(=O)O)c2)cc1
194 to 196 | O=C(O)c1ncoc1-c1ccccc1Cl
87 to 89 | CCOC(=O)c1cnc2c(OC)ccc(OC)c2c1Cl
129 to 131 | CCn1cc(C(=O)C(=O)O)cn1
100 to 102 | CS(=O)(=O)CCC(=O)O
92 to 94 | Nc1cccc(Oc2ncc(Br)cn2)c1

melting point [°C] | Structure (SMILES)
139 to 141 | COc1ccc(S(N)(=O)=O)c(N)c1
236 to 238 | Nc1ccc(Cl)cc1-c1nc2ccccc2[nH]1
136 to 138 | O=C(O)CSCc1ccccn1
170 to 172 | Fc1ccccc1Nc1nnc(S)s1
143 to 145 | Nc1cccc([N+](=O)[O-])c1C(=O)O
80 to 84 | N#Cc1cc(C=O)ccc1F
49 to 51 | CS(=O)(=O)c1cccc(N)c1
217 to 219 | CC(=O)c1ccc2c(c1)CC(=O)N2
45 to 47 | Cc1nc(-c2cccc(NC(=O)CCl)c2)cs1
171 to 173 | NC(=O)C(N)C(N)=O
85 to 87 | OCc1ccc(O)c(Cl)c1
94 to 96 | CC1CSC(=S)N1 (stereo not given)
111 to 113 | O=Cc1ccc(-c2ccc(F)cc2)s1
95 to 97 | OC(CNCc1ccccc1)c1cccs1 (stereo not given)
137 to 139 | COC(=O)c1cccc(C(N)=S)c1
113 to 115 | CCC(C)(CNC(=O)OC(C)(C)C)C(=O)O (stereo not given)
124 to 126 | COC(=O)c1cc(C=O)c[nH]1
203 to 207 | Cc1ccccc1Nc1nc(N)nc(CCl)n1
91 to 93 | Fc1cc(Br)cc2c(Cl)cc(C(F)(F)F)nc12
163 to 165 | NNC(=O)Nc1ccc(Br)cc1Cl
216 to 218 | Oc1ccc2cncnc2c1
177 to 179 | Nc1ncc(Cc2ccc(S(N)(=O)=O)cc2)s1
159 to 161 | Cn1cc(C#N)ccc1=O

melting point [°C] | Structure (SMILES)
96 to 98 | O=C(O)c1cccc(Oc2cccc(Cl)c2)n1
147 to 149 | NC(=S)C1CN(C(=O)OCc2ccccc2)CCO1 (stereo not given)
255 to 257 | NC(=O)CS(=O)(=O)c1ccc(C(=O)O)cc1
206 to 208 | O=C(O)c1cc2ccccc2c(OCC(F)(F)F)n1
157 to 159 | O=C(O)CCN1C(=O)CCc2ccccc21
138 to 140 | O=C(O)CN1C(=O)CCCc2sccc21
113 to 115 | CC(C)c1ccc(OCCC(=O)O)cc1
74 to 76 | N#Cc1ccc(Cl)cc1NC1CCCCC1
28 to 30 | CC(C)CC(=O)Cc1ccc(Cl)cc1Cl
173 to 175 | COc1ccc(S(=O)(=O)NCC(=O)O)cc1OC
113 to 115 | N#Cc1cc(C(F)(F)F)ccc1C(=O)O
239 to 241 | Cn1nc(Br)c(C(=O)NCC(=O)O)c1N
175 to 177 | COc1cc(C=O)c(Br)cc1O
136 to 138 | Cc1nc(C(=O)N(C)C)ccc1C(=O)O
81 to 83 | CC1(C)CCC(CC(=O)O)c2ccccc21 (stereo not given)
79 to 81 | CC1CCC(C(C)C)C(NC(=O)c2ccnc(F)c2)C1 (stereo not given)
57 to 59 | O=C(O)CSCc1ccc(Br)cc1F
157 to 159 | BrCC1CSc2nnc(-c3ccccc3)n21 (stereo not given)
204 to 206 | NC(=S)Cn1nc2ccccn2c1=O
50 to 52 | COC(=O)c1cc(Cl)cc(S(=O)(=O)Cl)c1

Structure (SMILES) | melting point [°C]
CCCc1cc(O)c2ccccc2n1 | 168 to 170
Nc1cc(C(F)(F)F)ccc1C1CCNCC1 | 86 to 88
Cc1ccc(-c2nn(Cc3ccccc3)cc2C=O)cc1C | 79 to 81
Nc1ccc(CCN2CCOCC2)cc1 | 87 to 89
COCCn1nnnc1N | 114 to 116
Cc1nnc(C(Cl)(Cl)Cl)o1 | 47 to 49
N#CCCn1cc(C(=O)O)c(-c2cccc(Br)c2)n1 | 154 to 156
CC(C)N1C(=O)NC2(CCNC2)C1=O (stereo not given) | 98 to 100
C1CCc2nnc(C3CCCNC3)n2CC1 (stereo not given) | 171 to 173
COc1ccc(CBr)cc1C#N | 119 to 121
